Results: BindingDB's records for doi:10.7270/Q2F769WQ (University of Pittsburgh, 2007)

molecular target: T1, Dual specificity protein phosphatase 1 (Homo sapiens, UniProt P28562); assay: concentration-response of DUSP1 blockers – biochemical, in vitro, confirmation, dose response (AID 551); settings: pH 7; 22 °C
T1 sequence (P28562 whole entry): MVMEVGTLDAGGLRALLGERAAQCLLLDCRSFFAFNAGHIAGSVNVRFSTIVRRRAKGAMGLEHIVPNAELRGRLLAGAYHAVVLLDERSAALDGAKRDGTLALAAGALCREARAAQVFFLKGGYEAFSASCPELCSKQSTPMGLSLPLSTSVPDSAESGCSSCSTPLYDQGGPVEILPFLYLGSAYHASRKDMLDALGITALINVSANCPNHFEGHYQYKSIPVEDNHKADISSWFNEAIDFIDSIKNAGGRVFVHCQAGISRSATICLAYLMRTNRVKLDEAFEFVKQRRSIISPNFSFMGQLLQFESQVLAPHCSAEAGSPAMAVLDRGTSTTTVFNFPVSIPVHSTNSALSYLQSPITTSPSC

With `COc1ccc(OC)c(NC(=O)CSc2nnc(Cc3cccn3C)n2CCc2ccccc2)c1` [MLS000092931] as the compound, how does the IC50 read?
The IC50 was over 50 µM.

How did the IC50 turn out when `CCc1ccc(NC(=O)CSc2nc3ccccc3c(=O)n2CCN2CCOCC2)cc1` [MLS000095236] was run?
The IC50 was 45.8 µM.

Which IC50 does the source give for `CCCn1nnc(NC(=O)c2cc(Br)cc(Br)c2OC)n1` [3,5-bis(bromanyl)-2-methoxy-N-(2-propyl-1,2,3,4-tetrazol-5-yl)benzamide] here?
Its IC50 is over 50 µM.

With `CCCCNC(=O)c1c(N)n(CCCOC)c2nc3ccccc3nc12` [2-amino-N-butyl-1-(3-methoxypropyl)-3-pyrrolo[3,2-b]quinoxalinecarboxamide] as the compound, how does the IC50 read?
The IC50 was 26.2 µM.

`CC12CC(NC(=O)N1c1ccc(C(=O)N3CCN(c4ccc(F)cc4)CC3)cc1)c1ccccc1O2` (stereo unspecified) [SMR000026617] was tested. Which IC50 did it give?
The IC50 was over 50 µM.

Which IC50 does the source give for `O=C1Nc2ccccc2SC(c2ccccc2)C1O` (stereo unspecified) [3-hydroxy-2-phenyl-2,3-dihydro-1,5-benzothiazepin-4(5H)-one] here?
The IC50 was 20.1 µM.

Which IC50 does the source give for `Oc1ncnc2[nH]ncc12` here?
The IC50 was over 50 µM.

`CC(C)Cn1c(N)c(C(=O)COC(=O)c2cc(-c3ccco3)nc3ccccc23)c(=O)n(C)c1=O` [2-(2-furanyl)-4-quinolinecarboxylic acid [2-[4-amino-1-methyl-3-(2-methylpropyl)-2,6-dioxo-5-pyrimidinyl]-2-oxoethyl] ester] was tested. Which IC50 did it give?
The IC50 was 23.1 µM.

For `O=C(CSc1nc2ccccc2c(=O)[nH]1)Nc1ccc(S(=O)(=O)N2CCCC2)cc1` [2-[(4-oxo-1H-quinazolin-2-yl)sulfanyl]-N-(4-pyrrolidin-1-ylsulfonylphenyl)acetamide], which IC50 is on record?
The IC50 was over 50 µM.

`Cc1nn(C(C)C(=O)N2CCCCC2)c(=O)c2c1sc1ccccc12` (stereo unspecified) [2-(2-keto-1-methyl-2-piperidino-ethyl)-4-methyl-benzothiopheno[2,3-d]pyridazin-1-one] was tested. Which IC50 did it give?
Its IC50 is over 50 µM.

How did the IC50 turn out when `O=C(c1n[nH]c(=O)c2ccccc12)N1CCN(C2c3ccccc3-c3ccccc32)CC1` [4-[[4-(9H-fluoren-9-yl)-1-piperazinyl]-oxomethyl]-2H-phthalazin-1-one] was run?
The IC50 was over 50 µM.

For `COCCCn1c(N)c(C(=O)NCCC(C)C)c2nc3ccccc3nc21` [MLS000041744], which IC50 is on record?
Its IC50 is 26.2 µM.

How did the IC50 turn out when `CC(NC(=O)c1ccc2c(c1)OCO2)C1CCCO1` (stereo unspecified) [MLS000065753] was run?
The IC50 was over 50 µM.

`Cc1cccc(NC(=O)c2cc(NC(=O)C3CCCCC3C(=O)O)ccc2N2CCCCC2)c1` (stereo unspecified) [2-({[3-{[(3-methylphenyl)amino]carbonyl}-4-(1-piperidinyl)phenyl]amino}carbonyl)cyclohexanecarboxylic acid] was tested. Which IC50 did it give?
Its IC50 is 49.2 µM.

`CCCCn1c(SCC(=O)c2ccc(OC)cc2OC)nc2cc(S(N)(=O)=O)ccc21` [1-butyl-2-[2-(2,4-dimethoxyphenyl)-2-oxidanylidene-ethyl]sulfanyl-benzimidazole-5-sulfonamide] was tested. Which IC50 did it give?
The IC50 was over 50 µM.

For `COC(=O)c1ccccc1NC(=O)CN1C(=O)C2CCCN2c2ncc(Cl)cc21` (stereo unspecified) [MLS000094302], which IC50 is on record?
Its IC50 is 35.9 µM.

With `[O-]/[N+](=C\c1ccncc1)c1ccc(Br)cc1` [MLS000109219] as the compound, how does the IC50 read?
Its IC50 is over 50 µM.

`Cc1ccc(NC(=O)COC(=O)c2ccc3c(c2)NC(=O)C2CCCN32)cc1C` (stereo unspecified) [4-keto-2,3,3a,5-tetrahydro-1H-pyrrolo[1,2-a]quinoxaline-7-carboxylic acid [2-(3,4-dimethylanilino)-2-keto-ethyl] ester] was tested. Which IC50 did it give?
The IC50 was over 50 µM.

For `Cn1c(=O)c2cc(S(=O)(=O)NCCC(=O)NCCC3=CCCCC3)ccc2n(C)c1=O` [MLS000092640], which IC50 is on record?
Its IC50 is over 50 µM.

For `CCn1c(SCC(=O)Nc2ccc3c(c2)c2ccccc2n3CC)nnc1-c1ccco1` [MLS000050867], which IC50 is on record?
Its IC50 is 11.4 µM.

`N#Cc1c(N2CCCC2)nc(N)c2c(N)nc(N3CCCC3)cc12` [SMR000061605] was tested. Which IC50 did it give?
The IC50 was 0.136 µM.

`[O-]/[N+](=C\c1ccncc1)c1ccccc1` was tested. Which IC50 did it give?
Its IC50 is 49.9 µM.

With `O=c1c2ccc[nH]c-2c(Nc2ccc(S(=O)(=O)N3CCCCCC3)cc2)n1Cc1ccccc1` [7-[[4-(azepan-1-ylsulfonyl)phenyl]amino]-6-(phenylmethyl)-7H-pyrrolo[3,4-b]pyridin-5-one] as the compound, how does the IC50 read?
The IC50 was over 50 µM.

How did the IC50 turn out when `COc1cc(/C=C(/C#N)c2ccc(F)cc2)ccc1OCc1ccc(C(=O)O)o1` [5-({4-[2-cyano-2-(4-fluorophenyl)vinyl]-2-methoxyphenoxy}methyl)-2-furoic acid] was run?
The IC50 was over 50 µM.

Which IC50 does the source give for `O=C1C(=C2C(=O)c3ccccc3C2=O)Nc2ccccc21` [MLS000071738] here?
The IC50 was over 50 µM.

With `Cc1cc(NC(=O)c2ccc(S(=O)(=O)N3CCCC3)cc2)nc2c1c(=O)oc1ccccc12` [MLS000091355] as the compound, how does the IC50 read?
The IC50 was 38.2 µM.

Which IC50 does the source give for `CCCCCC1CCC(C(=O)O)CC1` (stereo unspecified) [SMR000019012] here?
Its IC50 is over 50 µM.

For `COc1ccc(C(=O)CSc2nnc(CNC(=O)c3ccc(OC)c(OC)c3)n2C)cc1` [3,4-dimethoxy-N-[(5-{[2-(4-methoxyphenyl)-2-oxoethyl]thio}-4-methyl-4H-1,2,4-triazol-3-yl)methyl]benzamide], which IC50 is on record?
Its IC50 is over 50 µM.

With `CCSCCOC(=O)C1=C(C)N=C2CCCC(=O)C2C1c1coc2ccccc2c1=O` (stereo unspecified) as the compound, how does the IC50 read?
Its IC50 is over 50 µM.

Which IC50 does the source give for `O=C(c1cccn2c(=O)c3ccc(Cl)cc3nc12)N1CCN(Cc2ccc3c(c2)OCO3)CC1` [3-chloro-6-(4-piperonylpiperazine-1-carbonyl)pyrido[2,1-b]quinazolin-11-one] here?
Its IC50 is over 50 µM.

For `CCOc1cc(/C=C(/C#N)c2ccc(F)cc2)ccc1OCc1ccc(C(=O)O)o1` [5-[[4-[(E)-2-cyano-2-(4-fluorophenyl)ethenyl]-2-ethoxyphenoxy]methyl]furan-2-carboxylic acid], which IC50 is on record?
The IC50 was 36.1 µM.

For `[O-]/[N+](=C/c1ccc(F)cc1)c1ccccc1` [(E)-(4-fluorobenzylidene)(phenyl)azane oxide], which IC50 is on record?
The IC50 was over 50 µM.

How did the IC50 turn out when `CCCCOc1ccccc1P(=O)(O)CP(=O)(c1ccccc1)c1ccccc1` [(2-butoxyphenyl)-(diphenylphosphorylmethyl)phosphinic acid] was run?
The IC50 was over 50 µM.

With `O=C(Nc1ccccc1)c1ccc2nc(-c3ccco3)c(-c3ccco3)nc2c1` [2,3-di-2-furyl-N-phenyl-6-quinoxalinecarboxamide] as the compound, how does the IC50 read?
The IC50 was 21.6 µM.

Which IC50 does the source give for `CCOC(=O)CC(=O)CSc1nnc2sc3ccccc3n12` [3-keto-4-([1,2,4]triazolo[3,4-b][1,3]benzothiazol-1-ylthio)butyric acid ethyl ester] here?
Its IC50 is over 50 µM.

`Cc1nc2cc(-c3cccc(F)c3)nn2c(C)c1CCC(=O)N1CCC2(CC1)OCCO2` [1-(1,4-dioxa-8-azaspiro[4.5]decan-8-yl)-3-[2-(3-fluorophenyl)-5,7-dimethyl-6-pyrazolo[1,5-a]pyrimidinyl]-1-propanone] was tested. Which IC50 did it give?
The IC50 was over 50 µM.

For `CC1CCCCC1NC(=O)CCn1c(=O)oc2ccccc21` (stereo unspecified) [3-(2-keto-1,3-benzoxazol-3-yl)-N-(2-methylcyclohexyl)propionamide], which IC50 is on record?
Its IC50 is over 50 µM.

For `CC(=O)[C@@H]1[C@@H]2C(=O)N(c3ccc(F)c(Cl)c3)C(=O)[C@@H]2C2c3ccccc3C=CN21` (stereo partly specified) [MLS000040594], which IC50 is on record?
Its IC50 is over 50 µM.

Which IC50 does the source give for `O=C(OC1CCCCC1)c1ccc2c(c1)C1C=CCC1C(C(=O)O)N2` (stereo unspecified) [SMR000019385] here?
Its IC50 is 7.66 µM.

For `Cc1nn2c(-c3cccc(NC(=O)c4ccco4)c3)nnc2c2ccccc12` [MLS000097401], which IC50 is on record?
The IC50 was over 50 µM.

`CCOc1ccc2noc3c2c1C(=O)c1ccccc1-3` [MLS000106837] was tested. Which IC50 did it give?
The IC50 was 49.2 µM.

With `O=C(c1cccs1)c1no[n+]([O-])c1C(=O)c1cccs1` [(5-oxidanidyl-4-thiophen-2-ylcarbonyl-1,2,5-oxadiazol-5-ium-3-yl)-thiophen-2-yl-methanone] as the compound, how does the IC50 read?
The IC50 was 3.49 µM.

For `CCn1nc(-c2ccccc2)nc2c(=O)n(C)c(=O)nc1-2` [1-Ethyl-6-methyl-3-phenyl-1H-pyrimido[5,4-e][1,2,4]triazine-5,7-dione], which IC50 is on record?
The IC50 was 0.197 µM.

Which IC50 does the source give for `Cc1ccc(-c2csc(NC(=O)c3ccno3)n2)cc1` [MLS000081820] here?
The IC50 was 39 µM.

Which IC50 does the source give for `Cc1cccc(N2CCN(S(=O)(=O)c3ccc4c(c3)CCN4C(=O)CCC(=O)O)CC2)c1C` [4-(5-{[4-(2,3-dimethylphenyl)piperazin-1-yl]sulfonyl}-2,3-dihydro-1H-indol-1-yl)-4-oxobutanoic acid] here?
Its IC50 is over 50 µM.

How did the IC50 turn out when `CC1=C(/C=C/C(C)=C/C=C/C(C)=C/C(=O)O)C(C)(C)CCC1` [ALL-TRANS-RETINOIC ACID] was run?
The IC50 was 27.1 µM.

With `COc1ccc(-c2cn3c(C)c(C(=O)Nc4cccc(C)n4)sc3n2)cc1` [6-(4-methoxyphenyl)-3-methyl-N-(6-methyl-2-pyridinyl)-2-imidazo[2,1-b]thiazolecarboxamide] as the compound, how does the IC50 read?
The IC50 was over 50 µM.

`CC(C)Sc1nc2sc3c(c2c2nnc(SCC(=O)NCc4ccco4)n12)CCCC3` [MLS000082957] was tested. Which IC50 did it give?
The IC50 was 10.4 µM.

For `CCOC(=O)c1ccc(Nc2c3[nH]cccc-3c(=O)n2Cc2ccc(F)cc2)cc1` [ethyl 4-[[6-[(4-fluorophenyl)methyl]-5-oxo-7H-pyrrolo[3,4-b]pyridin-7-yl]amino]benzoate], which IC50 is on record?
The IC50 was over 50 µM.

How did the IC50 turn out when `CCCCn1c(NC(=O)c2ccccc2)c(C#N)c2nc3ccccc3nc21` [SMR000060333] was run?
The IC50 was 23.5 µM.

Which IC50 does the source give for `COc1ccc(Cn2c(C)nc3c(c2=O)c2nc4ccccc4nc2n3Cc2ccco2)cc1` [MLS000079944] here?
Its IC50 is 17 µM.

With `O=C(c1ccc2c(=O)n(C3CCCC3)c(=S)[nH]c2c1)N1CCN(C2CCCCC2)CC1` [7-[(4-cyclohexyl-1-piperazinyl)-oxomethyl]-3-cyclopentyl-2-sulfanylidene-1H-quinazolin-4-one] as the compound, how does the IC50 read?
The IC50 was over 50 µM.

`FC(F)(F)c1ccc(N2CCOCC2)c(Nc2nc3ccccc3n3cnnc23)c1` [MLS000093276] was tested. Which IC50 did it give?
The IC50 was 22.7 µM.

With `O=C(Nc1cccc(-c2nc3ccccc3[nH]2)c1)c1cccc(NC(=O)c2ccco2)c1` [N-[3-[[3-(1H-benzimidazol-2-yl)phenyl]carbamoyl]phenyl]furan-2-carboxamide] as the compound, how does the IC50 read?
The IC50 was over 50 µM.

How did the IC50 turn out when `COc1ccc2noc3c2c1C(=O)c1ccccc1-3` [MLS000106874] was run?
The IC50 was 16.1 µM.

With `C=CCn1c(NC(=O)c2ccccc2Cl)c(C#N)c2nc3ccccc3nc21` [2-chloro-N-(3-cyano-1-prop-2-enyl-2-pyrrolo[3,2-b]quinoxalinyl)benzamide] as the compound, how does the IC50 read?
Its IC50 is over 50 µM.
